This note sets out measurements from patent publication US8349880B2, “Bicyclic compounds for the reduction of beta-amyloid production” (Bristol-Myers Squibb Company, priority 2009, dated 2013).

For orientation: IC50 means the concentration that inhibits the measured activity by half.

For one experiment, the system named is Aβ1-42 production. The experiment in a line: Cellular assay for inhibition of Aβ1-42 production (H4 APP751 SWE clone 8.20). In kind it is cell-based. The conditions noted are these: 19 h, H4 APP751 SWE clone 8.20 cells, 19 h incubation; read-out: Activity Rating (Aβ42 cellular IC50, given as a number). On the procedure: Cellular assays for inhibition of Aβ1-40 and Aβ1-42 production
H4 cells stably transfected with APP751 containing the Swedish mutation (H4 APP751 SWE clone 8.20, developed at BMS) were maintained in log phase through twice weekly passage at a 1:20 split. For IC50 determinations, 30 μl cells (1.5×10^4 cells/well) in DMEM media containing 0.0125% BSA (Sigma A8412) were plated directly into 384-well compound plates (Costar 3709) containing 0.1 μl serially diluted compound in DMSO. Following incubation for 19 h in 5% CO2 at 37° C., plates were briefly centrifuged (1000 rpm, 5 min). A 10 μl aliquot from each well was transferred to a second assay plate (Costar 3709) for Aβ40 measurements. Antibody cocktails were freshly prepared by dilution into 40 mM Tris-HCl (pH 7.4) with 0.2% BSA and added to assay plates. For Aβ42 measurements, antibodies specific for the Aβ42 neoepitope (565, developed at BMS; conjugated to the Wallac reagent (Perkin Elmer)) and the N-terminal sequence of Aβ peptide (26D6, developed at SIBIA; conjugated to APC (Perkin Elmer)) were mixed and 20 μl of the mixture was added to each well of the incubated cell plate yielding a final concentration of 0.8 ng/well 565 and 75 ng/well 26D6. For the Aβ40 measurements, antibodies specific for the Aβ40 neoepitope (TSD, developed at BMS; conjugated to the Wallac reagent (Perkin Elmer)) and 26D6 as described above were mixed and 20 μl of the mixture was added to the 10 μl aliquots which had been removed previously from the cell plate yielding a final concentration of 1.6 ng/well TSD and 17.5 ng/well 26D6. Assay plates containing antibodies were sealed with aluminum foil and incubated overnight at 4° C. Signal was determined using a Viewlux counter (Perkin Elmer) and IC50 values determined using curve fitting in CurveMaster (Excel Fit based).
For `COc1cc(Nc2nc3n(n2)CCCC[C@H]3c2ccc(OCC(F)(F)F)cc2)ccc1-n1cnc(Cl)c1` (single isomer, unassigned) [Example 106], the IC50 turned out to be 5 nM.

In the case of `COc1cc(Nc2nc3n(n2)CCCC[C@@H]3c2ccc(OCC(F)(F)F)cc2)c(F)cc1-n1cnc(C)n1` (single isomer, unassigned) [Example 118], the IC50 was determined as 107 nM.

Turning to `C=C1CCn2nc(Nc3ccc(-n4cnc(Cl)c4)c(OC)c3)nc2[C@H](c2ccc(F)cc2)C1` (single isomer, unassigned) [Example 134], the IC50 came to 3 nM.

`COc1cc(Nc2nc3n(n2)CC[C@](C)(O)C[C@@H]3c2ccc(F)cc2)ccc1-n1cnc(Cl)c1` (single isomer, unassigned) [Example 149, 2,2,2-trifluoroacetate]: the IC50 is 2 nM.

Still in this experiment, the particulars now being: 19 h, H4 APP751 SWE clone 8.20 cells, 19 h incubation; read-out: Activity Rating (based on Aβ42 cellular IC50 values).
As to `Cc1ncnn1-c1ccc(Nc2nc3n(n2)CCCC[C@H]3c2ccc(OC(F)(F)F)cc2)cc1F` (single isomer, unassigned) [Example 100], the IC50 is under 10 nM.

Take `Cc1ncnn1-c1ccc(Nc2nc3n(n2)CCCC[C@@H]3c2ccc(OC(F)(F)F)cc2)cc1F` (single isomer, unassigned) [Example 101]: the IC50 is 10 to 100 nM.

In the case of `COc1cc(Nc2nc3n(n2)CCCC[C@H]3c2ccc(OC(C)C)cc2)ccc1-n1cnc(Cl)c1` (single isomer, unassigned) [Example 103], the IC50 was under 10 nM.

Take `COc1cc(Nc2nc3n(n2)CCCC[C@@H]3c2ccc(OC(C)C)cc2)ccc1-n1cnc(Cl)c1` (single isomer, unassigned) [Example 104]: the IC50 lay in the range of 10 to 100 nM.

With `COc1cc(Nc2nc3n(n2)CCCC[C@@H]3c2ccc(OCC(F)(F)F)cc2)ccc1-n1cnc(Cl)c1` (single isomer, unassigned) [Example 107], the IC50 is 10 to 100 nM.

With `Cc1ncnn1-c1ccc(Nc2nc3n(n2)CCCC[C@H]3c2ccc(OCC(F)(F)F)cc2)cc1F` (single isomer, unassigned) [Example 111], the IC50 is under 10 nM.

For the molecule `Cc1ncnn1-c1ccc(Nc2nc3n(n2)CCCC[C@@H]3c2ccc(OCC(F)(F)F)cc2)cc1F` (single isomer, unassigned) [Example 112], the IC50 was 10 to 100 nM.

On to `Cc1ncn(-c2ccc(Nc3nc4n(n3)CCCC[C@H]4c3ccc(OCC(F)(F)F)cc3)cc2F)n1` (single isomer, unassigned) [Example 114], for which the IC50 lay within 10 to 100 nM.

For `Cc1ncn(-c2ccc(Nc3nc4n(n3)CCCC[C@@H]4c3ccc(OCC(F)(F)F)cc3)cc2F)n1` (single isomer, unassigned) [Example 115], the IC50 was in the range of 10 to 100 nM.

For `Cc1ncnn1-c1ccc(Nc2nc3n(n2)CCCC[C@H]3c2ccc(OCC(F)F)cc2)cc1F` (single isomer, unassigned) [Example 120], the IC50 was in the range of 10 to 100 nM.

On to `Cc1ncnn1-c1ccc(Nc2nc3n(n2)CCCC[C@@H]3c2ccc(OCC(F)F)cc2)cc1F` (single isomer, unassigned) [Example 121], for which the IC50 lay within 100 to 1000 nM.

On to `Cc1ncn(-c2ccc(Nc3nc4n(n3)CCC[C@H]4c3ccc(OC(F)(F)F)cc3)cc2F)n1` (single isomer, unassigned) [Example 123], for which the IC50 lay in the range of 100 to 1000 nM.

Consider `Cc1ncn(-c2ccc(Nc3nc4n(n3)CCC[C@@H]4c3ccc(OC(F)(F)F)cc3)cc2F)n1` (single isomer, unassigned) [Example 124], for which the IC50 was in the range of 10 to 100 nM.

With `COc1cc(Nc2nc3n(n2)CCCC[C@@H]3c2ccc(OC(F)(F)F)cc2)ccc1-n1cnc(Cl)c1` (single isomer, unassigned) [Example 125], the IC50 was under 10 nM.

Consider `C=C1CCn2nc(Nc3ccc(-n4cnc(Cl)c4)c(OC)c3)nc2[C@@H](c2ccc(F)cc2)C1` (single isomer, unassigned) [Example 135], for which the IC50 is 10 to 100 nM.

For `COc1cc(Nc2nc3n(n2)CC[C@@](C)(O)C[C@@H]3c2ccc(F)cc2)ccc1-n1cnc(Cl)c1` (single isomer, unassigned) [Example 148], the 50% inhibitory concentration (IC50) was under 10 nM.

For the molecule `COc1cc(Nc2nc3n(n2)CCCC[C@H]3c2ccc(OCC(F)F)cc2)ccc1-n1cnc(Cl)c1` (single isomer, unassigned) [Example 162], the IC50 was in the range of 10 to 100 nM.

On to `COc1cc(Nc2nc3n(n2)CCCC[C@@H]3c2ccc(OCC(F)F)cc2)ccc1-n1cnc(Cl)c1` (single isomer, unassigned) [Example 163], for which the IC50 fell in the range of 10 to 100 nM.

As for `Cc1ncn(-c2ccc(Nc3nc4n(n3)CCCC[C@H]4c3ccc(OC(F)(F)F)c(F)c3)cc2F)n1` (single isomer, unassigned) [Example 165], the concentration for half-maximal inhibition (IC50) was in the range of 10 to 100 nM.

For the molecule `Cc1ncn(-c2ccc(Nc3nc4n(n3)CCCC[C@@H]4c3ccc(OC(F)(F)F)c(F)c3)cc2F)n1` (single isomer, unassigned) [Example 166], the IC50 is under 10 nM.

On to `COc1cc(Nc2nc3n(n2)CCCC[C@H]3c2ccc(OC(F)(F)F)cc2)cc(F)c1-n1cnc(C)n1` (single isomer, unassigned) [Example 168], for which the 50% inhibitory concentration (IC50) lay in the range of 10 to 100 nM.

For `COc1cc(Nc2nc3n(n2)CCCC[C@@H]3c2ccc(OC(F)(F)F)cc2)cc(F)c1-n1cnc(C)n1` (single isomer, unassigned) [Example 169], the IC50 was 100 to 1000 nM.

`COc1cc(Nc2nc3n(n2)CCCC[C@H]3c2ccc(OC(F)(F)F)cc2)c(F)cc1-n1cnc(C)n1` (single isomer, unassigned) [Example 176]: the IC50 was under 10 nM.

`COc1cc(Nc2nc3n(n2)CCCC[C@@H]3c2ccc(OC(F)(F)F)cc2)c(F)cc1-n1cnc(C)n1` (single isomer, unassigned) [Example 177]: the IC50 lay in the range of 10 to 100 nM.

Consider `COc1cc(Nc2nc3n(n2)CC=CCC3c2ccc(F)cc2)ccc1-n1cnc(Cl)c1` (stereo not drawn) [Example 1, (Z)—N-(4-(4-chloro-1H-imidazol-1-yl)-3-methoxyphenyl)-9-(4-fluorophenyl)-8,9-dihydro-5H-[1,2,4]triazolo[1,5-a]azepin-2-amine], for which the IC50 is under 10 nM.

Take `COc1cc(Nc2nc3n(n2)CC=CCC3c2ccc(F)cc2)ccc1-n1cnc(C)n1` (stereo not drawn) [Example 4, (Z)-9-(4-fluorophenyl)-N-(3-methoxy-4-(3-methyl-1H-1,2,4-triazol-1-yl)phenyl)-8,9-dihydro-5H-[1,2,4]triazolo[1,5-a]azepin-2-amine]: the IC50 was 10 to 100 nM.

As to `COc1cc(Nc2nc3n(n2)CCCCC3c2ccc(F)cc2)ccc1-n1cnc(C)n1` (stereo not drawn) [Example 7, 9-(4-fluorophenyl)-N-(3-methoxy-4-(3-methyl-1H-1,2,4-triazol-1-yl)phenyl)-6,7,8,9-tetrahydro-5H-[1,2,4]triazolo[1,5-a]azepin-2-amine 2,2,2-trifluoroacetate], the IC50 lay within 10 to 100 nM.

Turning to `COc1cc(Nc2nc3n(n2)CC=CCC3c2ccc(Cl)cc2Cl)ccc1-n1cnc(Cl)c1` (stereo not drawn) [Example 8, (Z)—N-(4-(4-chloro-1H-imidazol-1-yl)-3-methoxyphenyl)-9-(2,4-dichlorophenyl)-8,9-dihydro-5H-[1,2,4]triazolo[1,5-a]azepin-2-amine], the IC50 was 10 to 100 nM.

The same experiment, now with this note: H4 APP751 SWE clone 8.20 cells, 19 h incubation; read-out: Activity Rating (based on Aβ42 cellular IC50 values).
For `COc1cc(Nc2nc3n(n2)CCCC[C@@H]3c2ccc(OC(F)(F)F)cc2)ccc1-n1cnc(Cl)c1` (single isomer, unassigned) [Example 126], the IC50 fell in the range of 10 to 100 nM.
